{"source": "paper PMC7150648", "about": "(ACS infectious diseases, 2020)", "key": {"[1]": {"target": "T1, LasR (Pseudomonas aeruginosa, UniProt P25084)", "settings": "P. aeruginosa LasR reporter; ref [30]; cited from earlier work"}, "[2]": {"target": "T1, LasR", "settings": "result in words; ref Wu et al., FASEB J. 2016; cited from earlier work"}, "[3]": {"target": "T1, LasR", "settings": "50 μM compound; 16 h protein production"}, "[4]": {"target": "LasR Y56F mutant (Pseudomonas aeruginosa, UniProt P25084, Y56F)", "test": "E. coli LasR mutant reporter, Y56F", "type": "cell-based", "settings": "result in words"}, "[5]": {"target": "T1, LasR", "test": "LasR agonism, P. aeruginosa PAO-JP2 GFP reporter, compound alone", "type": "cell-based", "settings": "result in words"}, "[6]": {"target": "T1, LasR", "test": "LasR antagonism, P. aeruginosa PAO-JP2 GFP reporter, in competition with OdDHL", "type": "cell-based"}, "[7]": {"target": "T1, LasR", "test": "E. coli LasR β-galactosidase reporter, wild-type LasR", "type": "cell-based", "settings": "result in words"}, "[8]": {"target": "LasR S129A mutant (Pseudomonas aeruginosa, UniProt P25084, S129A)", "test": "E. coli LasR mutant reporter, S129A", "type": "cell-based", "settings": "result in words"}, "[9]": {"target": "LasR W60F mutant (Pseudomonas aeruginosa, UniProt P25084, W60F)", "test": "E. coli LasR mutant reporter, W60F", "type": "cell-based", "settings": "100 μM vs OdDHL at its EC50; result in words"}, "[10]": {"target": "RhlR (Pseudomonas aeruginosa, UniProt P54292)", "test": "E. coli RhlR β-galactosidase reporter", "type": "cell-based", "settings": "result in words"}, "[11]": {"target": "QscR (Pseudomonas aeruginosa, UniProt G3XD77)", "type": "cell-based", "settings": "E. coli reporter; result in words"}, "[12]": {"tested_on": "MexAB-OprM efflux pump", "settings": "P. aeruginosa; ref [16]; cited from earlier work"}}, "note": "“Also recorded” adds a separate entry of the source. Read-outs that look alike come from different tables or passages of the source."}
{"smiles": "O=C(Cc1ccc(Br)cc1)N[C@H]1CCOC1=O", "note": "[4-bromo PHL]", "values": [{"measurement": "IC50", "setting": "[1]", "value": 116, "unit": "µM"}]}
{"smiles": "CCCCC[C@H](O)/C=C/C=C\\C=C\\C=C\\[C@@H](O)[C@@H](O)CCCC(=O)O", "note": "[Lipoxin A]", "values": [{"measurement": "IC50", "setting": "[2]", "value": "nanomolar IC50"}]}
{"smiles": "CCCCCCCCCNC(=O)CC(=O)c1ccccc1", "note": "[V-06–018, N-nonyl-3-oxo-3-phenylpropanamide]", "values": [{"measurement": "soluble (S) LasR band intensity relative to whole cell (WC) band", "setting": "[3]", "value": "~ 7%"}, {"measurement": "LasR Y56F antagonism compared with wild-type LasR", "setting": "[4]; 100 μM vs OdDHL at its EC50", "value": "significantly lesser extent than wild-type LasR"}, {"measurement": "LasR Y56F agonism compared with wild-type LasR", "setting": "[4]; 100 μM", "value": "significantly greater extent than wild-type LasR"}, {"measurement": "LasR activation in dose-response agonism curves", "setting": "[5]", "value": "did not activate LasR"}, {"measurement": "IC50", "setting": "[6]", "value": 3.9, "unit": "µM"}, {"measurement": "LasR antagonism, primary screen", "setting": "[6]; PAO-JP2, compound 10 μM vs 150 nM OdDHL", "value": "~ 90%"}, {"measurement": "IC50", "setting": "[6]; PAO-JP2, vs 150 nM OdDHL (approximate EC50)", "value": 2.3, "unit": "µM"}, {"measurement": "Maximum Inhibition", "setting": "[6]; PAO-JP2, vs 150 nM OdDHL, best-fit bottom of dose-response curve", "value": 89, "unit": "%"}, {"measurement": "activity in LasR (antagonist in competition, agonist alone)", "setting": "[7]", "value": "only an antagonist of LasR; also recorded: does not agonize wild-type LasR"}, {"measurement": "LasR S129A antagonism compared with wild-type LasR", "setting": "[8]; 100 μM vs OdDHL at its EC50", "value": "significantly lesser extent than wild-type LasR"}, {"measurement": "LasR S129A agonism compared with wild-type LasR", "setting": "[8]; 100 μM", "value": "significantly more than wild-type LasR"}, {"measurement": "LasR W60F antagonism compared with wild-type LasR", "setting": "[9]", "value": "significantly lesser extent than wild-type LasR"}, {"measurement": "activity in RhlR (antagonist or agonist)", "setting": "[10]", "value": "no activity (as either an antagonist or agonist)"}, {"measurement": "activity in QscR (antagonist or agonist)", "setting": "[11]", "value": "only a very weak antagonist; also recorded: only a weak QscR antagonist"}, {"measurement": "active efflux by MexAB-OprM", "setting": "[12]", "value": "not actively effluxed"}]}
